Results as given in US9719093B2, “Composition for treating cancer associated with HPV infection” (priority 2012, dated 2017).

Tested on: HeLa cell line
Assay: Cell senescence-associated β-galactosidase (SA-β-gal) activity
Type: cell-based
Conditions: treated alone
Experimental: A HeLa or Caski cell line, which was seeded in a 6-well plate in 2×10^5 cells or 1.5×10^5 cells and then cultured for a day by the method as described above, was transduced with siRNA. Then, each transduced cell line was treated with cisplatin (CDDP) in a final concentration of 2.5 uM, and cultured.
By using the cell senescence assay kit (BioVision, USA), cells were washed with PBS and treated with SA-β-gal staining solution for 12 hours at 37. Cells stained in blue were observed by using a general optical microscope with the magnification of 100 to 200 times.
SA β-Gal activity of a HeLA or Caski cell line, which was treated by the method as described above, was measured.

N.N.[Cl][Pt][Cl] [cisplatin]
SA β-Gal activity (staining): cells were stained in blue
